Patent US20200338045A1, “ISOINDOLINE COMPOSITIONS AND METHODS FOR TREATING NEURODEGENERATIVE DISEASE” (priority 2017, published 2020)
Like-named read-outs stand apart in the source and are kept apart here. Marks after values point to notes of the source that are not given here.

Assays:
[1] = Phase 1 multiple ascending dose (MAD) plasma pharmacokinetics; assay type: in vivo, human; conditions: for Cmax / AUC(0-t) / Tmax / half-life: human, plasma, oral; for AUC(0-t): read-out: AUC0-24h (mean)
Method: In Part B, healthy young subjects in each cohort received the same dose once daily for 14 days after overnight fasting. Cohort dosing started at 280 mg, followed by 560 mg and 840 mg in subsequent cohorts. In each cohort, eight subjects received drug and two received placebo. A fourth cohort of healthy elderly subjects (≥65 years old) received a 560 mg dose vs. placebo daily for 14 days (seven active, two placebo).
In Part A, blood draws for assessment of PK parameters occurred pre-dose and at 15, 30, 45, 60, and 90 minutes post dose as well as at 2, 3, 4, 8, 12, 24, 36, and 48 hours post dose. […] In Part B, blood samples for plasma PK analysis were taken on Day 1 at pre-dose and at 2 hours post-dose, on Day 3 at pre-dose and at 15, 30 and 45 minutes and 1, 2, 3, 4, 8, 12 and 24 hours post-dose, on Days 4, 6, 8 and 10 at pre-dose and at 1.5 hours post-dose and following the final dose on Day 14 at pre-dose and 15, 30 and 45 minutes and 1, 2, 4, 8, 12, 24, 36 and 48 hours post-dose.
This was assessed by analysis of variance (ANOVA) of log-transformed Cmax, AUC0-24, AUC0-48, and/or AUC0-inf, using a model with factors for treatment (fed status or age [young vs. elderly] status) and subject within sequence. Treatment mean differences and 90% confidence intervals of the log transformed PK parameters were back-transformed, to present the geometric least squares means ratios and 90% confidence limits.

[2] = Phase 1b/2a clinical trial (COG0102): safety and tolerability; assay type: in vivo, human; conditions: for Mild TEAEs-n (%) / Moderate TEAEs-n (%) / SAEs-n (%) / Severe TEAEs-n (%) / TEAEs-n (%): once daily 28 days
Method: Safety and pharmacokinetics were primary objectives of the study, with changes in molecular biomarkers and cognitive outcomes identified as an exploratory objective. […]
This trial (ClinicalTrials.gov NCT02907567) was a randomized, double-blind, placebo-controlled clinical trial in mild to moderate Alzheimer's patients (MMSE 18-26) (See FIG. 1 for clinical trial design). The trial was conducted at six sites in Australia. Patients were randomized into placebo (n=5) or CT1812-treated groups: 90 mg (n=4), 280 mg (n=5) or 560 mg (n=5) and treated once daily for 28 days. Clinical chemistry was done at Sydpath (Sydney, AU). Pharmacokinetics were done at CPR Pharma Services (Adelaide, AU). Cerebrospinal fluid samples were taken at screening and day 21-28 of treatment and aliquoted. Plasma samples were taken at screening or Day 1 (one sample) and day 14-28, then spun down to separate plasma and aliquoted. One set of CSF samples was analyzed for Alzheimer's disease biomarkers; protein measurements (Aβ42, A1340, total tau, tau phosphorylated at threonine 181 (phosphorylated tau), NFL and neurogranin) were performed using commercially available ELISA assays from Fujirebio according to the manufacturer's instructions (INNOTEST β-AMYLOID(1-42), INNOTEST β-AMYLOID(1-40), INNOTEST hTau Ag, INNOTEST PHOSPHO-TAU(181P), Uman Diagnostics NFL assay). Neurogranin was measured with a sandwich ELISA method using antibodies Ng2 and Ng22 developed at the University of Gotteborg (Kvartsberg et al. 2015). Identical aliquots of CSF, and plasma were analyzed for protein expression changes via LC/MSMS at Caprion (see below).

[3] = 560 mg daily, Day 14 (steady state)
[4] = 560 mg daily, day 3, geometric least-squares mean
[5] = 280 mg, 280 mg QD, Day 3, age up to 64 years (n = 8)
[6] = 280 mg, 280 mg QD, Day 14, age up to 64 years (n = 8)
[7] = 560 mg, 560 mg QD, Day 3, age at least 65 years (n = 7)
[8] = 560 mg, 560 mg QD, Day 3, age up to 64 years (n = 8)
[9] = 560 mg, 560 mg QD, Day 14, age at least 65 years (n = 7)
[10] = 560 mg, 560 mg QD, Day 14, age up to 64 years (n = 8)
[11] = 840 mg, 840 mg QD, Day 3, age up to 64 years (n = 7)
[12] = 840 mg, 840 mg QD, Day 14, age up to 64 years (n = 7)

CC(C)(C)Oc1cc(CCC(C)(C)N2Cc3ccc(S(C)(=O)=O)cc3C2)ccc1O [CT1812]
CLss/F (mean) ([1]; 280 mg QD, Day 14, age up to 64 years (n = 8), unit assumed): 387 L/h
CLss/F (mean) ([1]; 560 mg QD, Day 14, age at least 65 years, n = 7): 169^‡‡
CLss/F (mean) ([1]; 560 mg QD, Day 14, age up to 64 years (n = 8), unit assumed): 296 L/h
AUC0-24h, aged cohort vs younger subjects [1, 3]: 1.5 times
Cmax, aged cohort vs younger subjects [1, 3]: 1.6 times
AUC0-24h, aged cohort vs subjects under 64 years [1, 4]: ~1.34 times
Cmax, aged cohort vs subjects under 64 years [1, 4]: approximately 1.7 times
CLss/F (mean) ([1]; 840 mg QD, Day 14, age up to 64 years, n = 7): 212^‡‡
Cmax and AUC / plasma concentration vs dose ([1]; MAD 280 to 840 mg): slightly greater than dose proportionally
accumulation with repeat dosing ([1]; Q.D. over 14 days): minimal accumulation
Cmax [1, 5]: 238 ng/mL
AUC(0-t) [1, 5]: 851 ng·h/mL
Tmax ([1]; 280 mg, 280 mg QD, Day 3, age up to 64 years (n = 8), read-out: Tmax (median)): 1.5 h
half-life ([1]; 280 mg, 280 mg QD, Day 3, age up to 64 years, n = 6, over max 24 hours post dose, read-out: t1/2 (mean) (converted)): 8.97 h
Cmax [1, 6]: 431 ng/mL
AUC(0-t) [1, 6]: 1060 ng·h/mL
Tmax ([1]; 280 mg, 280 mg QD, Day 14, age up to 64 years (n = 8), read-out: Tmax (median)): 0.88 h
half-life ([1]; 280 mg, 280 mg QD, Day 14, age up to 64 years (n = 8), read-out: t1/2 (mean) (converted)): 12 h
Cmax [1, 7]: 567 ng/mL
AUC(0-t) [1, 7]: 3330 ng·h/mL
Tmax ([1]; 560 mg, 560 mg QD, Day 3, age at least 65 years (n = 7), read-out: Tmax (median)): 2 h
half-life ([1]; 560 mg, 560 mg QD, Day 3, age at least 65 years, n = 4, over max 24 hours post dose, read-out: t1/2 (mean) (converted)): 8.83 h
Cmax [1, 8]: 407 ng/mL
AUC(0-t) [1, 8]: 1940 ng·h/mL
Tmax ([1]; 560 mg, 560 mg QD, Day 3, age up to 64 years (n = 8), read-out: Tmax (median)): 2 h
half-life ([1]; 560 mg, 560 mg QD, Day 3, age up to 64 years, n = 2, over max 24 hours post dose, read-out: t1/2 (mean) (converted)): 8.56 h
Cmax [1, 9]: 853 ng/mL
AUC(0-t) [1, 9]: 4450 ng·h/mL
Tmax ([1]; 560 mg, 560 mg QD, Day 14, age at least 65 years (n = 7), read-out: Tmax (median)): 1 h
half-life ([1]; 560 mg, 560 mg QD, Day 14, age at least 65 years (n = 7), read-out: t1/2 (mean) (converted)): 12.8 h
Cmax [1, 10]: 651 ng/mL
AUC(0-t) [1, 10]: 2810 ng·h/mL
Tmax ([1]; 560 mg, 560 mg QD, Day 14, age up to 64 years (n = 8), read-out: Tmax (median)): 2 h
half-life ([1]; 560 mg, 560 mg QD, Day 14, age up to 64 years (n = 8), read-out: t1/2 (mean) (converted)): 12.3 h
Cmax [1, 11]: 813 ng/mL
AUC(0-t) [1, 11]: 3610 ng·h/mL
Tmax ([1]; 840 mg, 840 mg QD, Day 3, age up to 64 years (n = 7), read-out: Tmax (median)): 2 h
half-life ([1]; 840 mg, 840 mg QD, Day 3, age up to 64 years, n = 5, over max 24 hours post dose, read-out: t1/2 (mean) (converted)): 9.39 h
Cmax [1, 12]: 991 ng/mL
AUC(0-t) [1, 12]: 4990 ng·h/mL
Tmax ([1]; 840 mg, 840 mg QD, Day 14, age up to 64 years (n = 7), read-out: Tmax (median)): 2 h
half-life ([1]; 840 mg, 840 mg QD, Day 14, age up to 64 years, n = 6, read-out: t1/2 (mean) (converted)): 8.93 h
half-life ([1]; MAD, read-out: average terminal half-life at steady state (converted)): ~12 h
Tmax ([1]; part B (MAD), 280-840 mg, read-out: Tmax in plasma, range over doses): 0.88 to 2 h
Headache-n (%) ([2]; 90 mg (as in Table 3)): 1 (25%) n (%)
Lymphocytopenia-n (%) ([2]; 90 mg (as in Table 3)): 0 (0%) n (%)
Nausea-n (%) ([2]; 90 mg (as in Table 3)): 0 (0%) n (%)
Vomiting-n (%) ([2]; 90 mg (as in Table 3)): 0 (0%) n (%)
Mild TEAEs-n (%) ([2]; 90 mg (n = 4)): 4 (100%) n (%)
Moderate TEAEs-n (%) ([2]; 90 mg (n = 4)): 0 (0%) n (%)
SAEs-n (%) ([2]; 90 mg (n = 4)): 0 (0%) n (%)
Severe TEAEs-n (%) ([2]; 90 mg (n = 4)): 0 (0%) n (%)
TEAEs-n (%) ([2]; 90 mg (n = 4)): 3 (75%) n (%)
Headache-n (%) ([2]; 280 mg (as in Table 3)): 0 (0%) n (%)
Lymphocytopenia-n (%) ([2]; 280 mg (as in Table 3)): 0 (0%) n (%)
Nausea-n (%) ([2]; 280 mg (as in Table 3)): 0 (0%) n (%)
Vomiting-n (%) ([2]; 280 mg (as in Table 3)): 0 (0%) n (%)
Mild TEAEs-n (%) ([2]; 280 mg (n = 5)): 3 (60%) n (%)
Moderate TEAEs-n (%) ([2]; 280 mg (n = 5)): 1 (20%) n (%)
SAEs-n (%) ([2]; 280 mg (n = 5)): 0 (0%) n (%)
Severe TEAEs-n (%) ([2]; 280 mg (n = 5)): 0 (0%) n (%)
TEAEs-n (%) ([2]; 280 mg (n = 5)): 4 (80%) n (%)
Headache-n (%) ([2]; 560 mg (as in Table 3)): 2 (40%) n (%)
Nausea-n (%) ([2]; 560 mg (as in Table 3)): 2 (40%) n (%)
Vomiting-n (%) ([2]; 560 mg (as in Table 3)): 2 (40%) n (%)
Mild TEAEs-n (%) ([2]; 560 mg (n = 5)): 5 (100%) n (%)
Moderate TEAEs-n (%) ([2]; 560 mg (n = 5)): 3 (60%) n (%)
SAEs-n (%) ([2]; 560 mg (n = 5)): 0 (0%) n (%)
Severe TEAEs-n (%) ([2]; 560 mg (n = 5)): 0 (0%) n (%)
TEAEs-n (%) ([2]; 560 mg (n = 5)): 5 (100%) n (%)
safety and tolerability ([2]; 90, 280 and 560 mg once daily 28 days, mild to moderate Alzheimer's patients): generally safe and well tolerated
ALT ([2]; one participant at 560 mg, resolved by end of study, no increase in bilirubin): ~4.7 ×ULN
